The values that follow come from ChEMBL document CHEMBL1140590, “3-(2'-Bromopropionylamino)-benzamides as novel S-phase arrest agents” (Bioorg Med Chem Lett, 2007).

Experiment [1] deals with MOLT-3. Nature of the experiment: Antiproliferative activity against human Molt3 cells. Type of experiment: functional, cell-based.
Experiment [2] is described as follows: Antiproliferative activity against human DND1 cells. Type of experiment: functional, cell-based.
The subject of experiment [3] is MCF7. Nature of the experiment: Antiproliferative activity against human MCF7 cells. Format: functional, cell-based.
Experiment [4] relates to DU-145. Nature of the experiment: Antiproliferative activity against human DU145 cells. Format: functional, cell-based.
Experiment [5] concerns Bel-7402. Nature of the experiment: Antiproliferative activity against human Bel7402 cells. Format: functional, cell-based.
Experiment [6] relates to PC-3. Nature of the experiment: Antiproliferative activity against human PC3 cells. Type of experiment: functional, cell-based.
Experiment [7] concerns CEM (Homo sapiens). Nature of the experiment: Cell cycle arrest in human CEM cells by accumulation at S phase after 6 to 12 hrs at 6.14 uM.
Experiment [8] has as its system CEM (Homo sapiens). Nature of the experiment: Cell cycle arrest in human CEM cells by accumulation at S phase after 24 hrs at 6.14 uM.
Experiment [9] has as its system CEM (Homo sapiens). Nature of the experiment: Cell cycle arrest in human CEM cells by accumulation at S phase after 6 hrs at 6.14 uM.

The IC50 is the concentration that inhibits the measured activity by half. Read a high IC50 as lower potency. Turning to `COc1ccc(NC(=O)c2cccc(NC(=O)C(C)Br)c2)cc1` (stereo unspecified), the IC50 in experiment [1] turned out to be 800 nM.

In the case of `CCCCNC(=O)c1cccc(NC(=O)C(C)Br)c1` (stereo unspecified), the IC50 in experiment [1] was above 10000 nM.

With `COc1cc(NC(=O)c2cccc(NC(=O)C(C)Br)c2)ccc1O` (stereo unspecified), the concentration for half-maximal inhibition (IC50) in [2] worked out at 1220 nM; in [3], 860 nM; in experiment [4], 6480 nM; in experiment [1], 510 nM; in experiment [5], 5260 nM; in experiment [6] it was 3130 nM.

`CC(Br)C(=O)Nc1cccc(C(=O)Nc2ccc3c(c2)OCO3)c1` (stereo unspecified) yielded an IC50 in [1] of 620 nM.

Compound `COc1cc(NC(=O)c2cccc(NC(=O)C(C)Br)c2)cc(OC)c1` (stereo unspecified) gave an IC50 in experiment [1] of 610 nM.

`COc1cc(NC(=O)c2cccc(NC(=O)C(C)Br)c2)cc(OC)c1OC` (stereo unspecified): the IC50 in experiment [2] turned out to be 2260 nM; in experiment [3], 1470 nM; in experiment [4], 1930 nM; in experiment [1], 670 nM; in experiment [5], 2640 nM; in experiment [6], 2460 nM.

As for `COc1ccc(C(=O)Nc2cc(OC)c(OC)c(OC)c2)cc1NC(=O)C(C)Br` (stereo unspecified), the 50% inhibitory concentration (IC50) in [1] was determined as 4240 nM.

In experiment [1], `CC(Br)C(=O)Nc1cccc(C(=O)NC(N)=O)c1` (stereo unspecified) showed an IC50 of 1600 nM.

Take `CC(Br)C(=O)Nc1cccc(C(=O)Nc2ccc(F)cc2)c1` (stereo unspecified): the IC50 in experiment [1] was found to be 2000 nM.

Regarding `CCOc1ccc(NC(=O)c2cc(NC(=O)C(C)Br)ccc2F)cc1` (stereo unspecified), in experiment [1], the IC50 was above 10000 nM.

`COc1cc(NC(=O)c2cc(NC(=O)C(C)Br)ccc2O)cc(OC)c1OC` (stereo unspecified): in experiment [1], it took 1080 nM to reach half-maximal inhibition (IC50).

`COc1cc(NC(=O)c2cc(NC(=O)C(C)Br)ccc2F)ccc1O` (stereo unspecified): inhibition in [1] was half-maximal at 850 nM (IC50).

In experiment [1], `CCCNC(=O)c1cccc(NC(=O)C(C)Br)c1` (stereo unspecified) showed an IC50 of 8940 nM.

Compound `COc1ccc2nc(NC(=O)c3cccc(NC(=O)C(C)Br)c3)sc2c1` (stereo unspecified) came in with an IC50 in experiment [1] of 1660 nM.

With `COc1cc(C(=O)Nc2cccc(NC(=O)C(C)Br)c2)cc(OC)c1OC` (stereo unspecified), it took 5660 nM to reach half-maximal inhibition in experiment [1] (IC50).

Consider `COc1cc(NC(=O)c2ccc(NC(=O)C(C)Br)cc2)cc(OC)c1OC` (stereo unspecified), for which the midpoint of inhibition in [1], the IC50, lay at 1790 nM.

`COc1cc(NC(=O)c2ccccc2NC(=O)C(C)Br)cc(OC)c1OC` (stereo unspecified) yielded an IC50 in [1] of 5720 nM.

`COc1cc(NC(=O)NC(=O)c2cccc(NC(=O)C(C)Br)c2)cc(OC)c1OC` (stereo unspecified): the IC50 in [1] was found to be 4220 nM.

On to `COc1cc(NC(=O)c2cc(NC(=O)C(C)Br)ccc2F)cc(OC)c1OC` (stereo unspecified), for which the IC50 in experiment [2] was found to be 4160 nM; in [3], 2110 nM; in [4], 2030 nM; in experiment [1] it was 420 nM; in [5] it was 2050 nM; in experiment [6], 2180 nM.

As for `COc1cc(NC(=O)c2ccc(F)c(NC(=O)C(C)Br)c2)cc(OC)c1OC` (stereo unspecified), in experiment [1], the IC50 is 2200 nM.

For the compound `COc1cc(NC(=O)c2ccc(Cl)c(NC(=O)C(C)Br)c2)cc(OC)c1OC` (stereo unspecified), the midpoint of inhibition in experiment [1], the IC50, lay at 2250 nM.

For `COc1ccc(NC(=O)c2cc(NC(=O)C(C)Br)ccc2F)cc1` (stereo unspecified), the IC50 in experiment [2] was 2560 nM; in experiment [3] it was 1390 nM; in experiment [4] it was 6450 nM; in experiment [1], 250 nM; in [5] it was 3370 nM; in experiment [6] it was 2430 nM.

On to `CC(Br)C(=O)Nc1cccc(C(=O)Nc2ccc3[nH]c4ccccc4c3c2)c1` (stereo unspecified), for which, in experiment [1], the concentration for half-maximal inhibition (IC50) is 1510 nM.

As for `COc1cc(NS(=O)(=O)c2cccc(NC(=O)C(C)Br)c2)cc(OC)c1OC` (stereo unspecified), the IC50 in [1] was 1270 nM.

`COc1cc(NC(=O)c2cc(NC(=O)C(C)Br)ccc2F)ccn1` (stereo unspecified): the 50% inhibitory concentration (IC50) came to 2570 nM in [2]; 2200 nM in experiment [3]; 2350 nM in experiment [4]; 500 nM in experiment [1]; 2700 nM in experiment [5]; 2420 nM in experiment [6].

For the compound `COc1ccc(NC(=O)c2cc(NC(=O)C(C)Br)ccc2F)cc1OC` (stereo unspecified), the IC50 in experiment [1] stood at 470 nM.

As to `CC(Br)C(=O)Nc1cccc(C(=O)NCCN(C)C)c1` (stereo unspecified), the IC50 in [1] is above 10000 nM.

In [1], `CC(Br)C(=O)Nc1cccc(C(=O)N2CCN(C)CC2)c1` (stereo unspecified) showed an IC50 above 10000 nM.

Turning to `COc1ccc(NC(=O)c2cccc(NC(=O)C(C)Br)c2)cc1OC` (stereo unspecified), the 50% inhibitory concentration (IC50) was 1400 nM in [2]; 1230 nM in experiment [3]; 1870 nM in [4]; 120 nM in [1]; 2330 nM in experiment [5]; 2360 nM in experiment [6]. Further, the Activity turned out to be 62.7% in experiment [7], 61.9% in experiment [8] and 52.9% in experiment [9].

For the compound `COc1ccc(/C=C\c2cc(OC)c(OC)c(OC)c2)cc1O` [COMBRETASTATIN A4], the concentration for half-maximal inhibition (IC50) in experiment [2] was found to be 3 nM; in experiment [4], 9 nM; in [1], 90 nM.

Consider `COc1cc([C@@H]2c3cc4c(cc3[C@H](O)[C@H]3COC(=O)[C@H]23)OCO4)cc(OC)c1OC` [PODOFILOX], for which, in experiment [2], it took 12 nM to reach half-maximal inhibition (IC50).
